Oligonucleotides are written 5' to 3', each unit as a sugar letter and its base; * is a phosphorothioate linkage, no mark a phosphodiester; rarer units and linkages stand in square brackets, end groups in braces. Plain capitals give the bases only. d = 2'-deoxy (DNA)
How the values were obtained:
Type in all cases: cell-based, human
[1] = system: HCT116 colon cell carcinoma; experiment: Relative colony forming efficiency (Example 17, Table 13); conditions: averages of 2-8 determinations
How it was run: (§1)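 Phosphorothioate antisense oligonucleotides were delivered to tumour cell cultures with 2.5 μg DOTMA/DOPE (Lipofectin) over four hours, at 0.2 μM unless otherwise indicated. Surviving colonies were stained with methylene blue and scored. Values are % inhibition of colony formation relative to lipofectin-only controls.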

[2] = system: HepG2 hepatocellular carcinoma; experiment: as above; conditions: averages of 2-8 determinations
How it was run: as §1

[3] = system: MDA PaCa-2 pancreatic cell carcinoma; experiment: as above; conditions: MIA PaCa-2 pancreatic cell carcinoma; averages of 2-8 determinations
How it was run: as §1

A549 lung cell carcinoma = experiment: as above; conditions: averages of 2-8 determinations
How it was run: as §1

[4] = system: T-47D breast ductal carcinoma; experiment: as above; conditions: averages of 2-8 determinations
How it was run: as §1

[5] = system: MDA-MB-231 breast cell adenocarcinoma; experiment: as above; conditions: averages of 2-8 determinations
How it was run: as §1

[6] = system: T24 bladder cell carcinoma; experiment: as above; conditions: averages of 2-8 determinations
How it was run: as §1

[7] = system: PC-3 prostrate cell adenocarcinoma; experiment: as above; conditions: averages of 2-8 determinations
How it was run: as §1

Hela S3 cells = experiment: Relative colony forming efficiency, lipofectin +/- oligonucleotide 4 hours; conditions: Hela S3 cervix carcinoma cells; averages of 2-8 determinations
Procedure: Colony forming efficiency was determined using standard protocols. Briefly, the cells were cultured for 24 hours at 37° C. in growth medium with 10% fetal bovine serum. The cells were washed in 5 ml phosphate buffered saline, pH 7.2, once prior to lipofectin +/−oligonucleotide treatment.
The test oligonucleotides were added to cell cultures in the presence of 2.5 μg of DOTMA/DOPE (Lipofectin; Life Technologies, Inc.) for four hours. The oligonucleotide was tested at 0.2 μM unless otherwise indicated. Controls were the cultures treated with lipofectin but without the oligonucleotide. After 4 hours the medium containing the oligonucleotide was removed and washed with 5 ml of growth medium. The cells were then cultured in growth medium containing 10% fetal bovine serum for seven to ten days. Surviving cells were visualized by methylene blue staining, and colonies were scored. In some experiments cell aliquots were removed from the culture and viability was determined using the trypan blue exclusion test. Results were analyzed as percent of surviving cells compared to control cells.
AS-II-336-20 was tested for the ability to inhibit the proliferation of human tumour cells (Hela). Hela S3 cells (American Type Culture Collection, Rockville, Md., ATCC), and a Hela cell line (Hela 1 mM) previously selected for resistance to the antitumour agent, hydroxyurea, were tested (see results in Table 11). Two experiments were undertaken with Hela S3 cells. […] The same experiment was repeated with the Hela 1 mM cell line and with varying concentrations of the antisense construct AS-II-336-20 (see results in Table 11) with similar results, […] was an effective concentration for inhibiting colony formation.
To test the antisense effects of many of these sequences as phosphorthioate deoxyribonucleotides, they were examined in relative colony forming experiments conducted as described in Example 16 with a series of human tumour cell lines. The results (shown as % inhibition of colony forming ability) obtained with cancer cells derived from the bladder, breast, lung, colon, pancreas, prostate, liver and cervix, are shown in Table 13. The specific cell lines employed are as follows:
T24=bladder cell carcinoma HCT116=colon cell carcinoma A549=lung cell carcinoma MDA-MB-231=breast cell adenocarcinoma […]=pancreatic cell carcinoma PC-3=prostrate cell adenocarcinoma HepG2=hepatocellular carcinoma HeLaS3=cells isolated from a carcinoma of the cervix T-47D=breast ductal carcinoma H596=lung adenosquamous carcinoma cells Colo320=colon cell adenocarcinoma

Row | Sequence | Reduced relative colony forming efficiency, HCT116 (% inhibition of colony forming ability) [1] | Reduced relative colony forming efficiency, HepG2 (% inhibition of colony forming ability) [2] | Reduced relative colony forming efficiency, MIA PaCa-2 (% inhibition of colony forming ability) [3] | Reduced relative colony forming efficiency, A549 (% inhibition of colony forming ability) (A549 lung cell carcinoma) | Reduced relative colony forming efficiency, T-47D (% inhibition of colony forming ability) [4] | Reduced relative colony forming efficiency, MDA-MB-231 (% inhibition of colony forming ability) [5] | Reduced relative colony forming efficiency, T24 (% inhibition of colony forming ability) [6] | Reduced relative colony forming efficiency, PC-3 (% inhibition of colony forming ability) [7] | Reduced relative colony forming efficiency, Hela S3 (% inhibition of colony forming ability) (Hela S3 cells)
1 | AAAAATCAGCCAAGTAAGGG (antisense dA*dA*dA*dA*dA*dT*dC*dA*dG*dC*dC*dA*dA*dG*dT*dA*dA*dG*dG*dG) [AS-II-1381-20] | 89.48% | 62.34% | 73.77% | 86.02% | 93.62% | 44.41% | 71.37% | 75% | 80.53%
2 | CCCAGTTCCAGCATAAGTCT (antisense dC*dC*dC*dA*dG*dT*dT*dC*dC*dA*dG*dC*dA*dT*dA*dA*dG*dT*dC*dT) [AS-II-1182-20] | 88.13% | 92.23% | 84.72% | 80.06% | 92.41% | – | 94.51% | 92.76% | 90.61%
3 | CGGCGGCGTGTTCTCCTTGT (antisense dC*dG*dG*dC*dG*dG*dC*dG*dT*dG*dT*dT*dC*dT*dC*dC*dT*dT*dG*dT) [AS-II-280-20] | 69.42% | 97.14% | 53.94% | 61.81% | – | 79.14% | 90.56% | 77.51% | 41.79%
4 | CTGCTTTAGTTTTCGGCTCC (antisense dC*dT*dG*dC*dT*dT*dT*dA*dG*dT*dT*dT*dT*dC*dG*dG*dC*dT*dC*dC) [AS-II-362-20] | 62.81% | 95.78% | 34.2% | 61.81% | – | 85.83% | 89.63% | 75.78% | 45.69%
5 | GCTCCCACATATGAAAACTC (antisense dG*dC*dT*dC*dC*dC*dA*dC*dA*dT*dA*dT*dG*dA*dA*dA*dA*dC*dT*dC) [AS-II-2229A-20] | 93.01% | 73.26% | 33.61% | 69.72% | 58.82% | – | 50.34% | 89.58% | 63.15%
6 | GTCTCTCCTCCGATGGTTTG [AS-II-1040-20] | 70.08% | 77.78% | 43.52% | 85.82% | 64.76% | – | 59.49% | 40.08% | 71.87%
7 | TCAGAGGGGGCAGAGAATCC (antisense dT*dC*dA*dG*dA*dG*dG*dG*dG*dG*dC*dA*dG*dA*dG*dA*dA*dT*dC*dC) [AS-II-2044-20] | 49.34% | 62.35% | 24.48% | 25.55% | – | 19.11% | 53.63% | 74.48% | 24.55%
8 | TCCTCGGCGGTCCAAA (antisense dT*dC*dC*dT*dC*dG*dG*dC*dG*dG*dT*dC*dC*dA*dA*dA) [AS-II-496-16] | 70.85% | 54.8% | – | 74.45% | 10.79% | 45.8% | 78.48% | 88.84% | 52.21%
9 | TCTGCCTTCTTCTTGACACA (antisense dT*dC*dT*dG*dC*dC*dT*dT*dC*dT*dT*dC*dT*dT*dG*dA*dC*dA*dC*dA) [AS-II-798-20] | 64.46% | 89.46% | 34.65% | 70.49% | – | 83.92% | 84.72% | 83.21% | 56.42%
10 | TTCTCTTACTCTCTCCTCCG (antisense dT*dT*dC*dT*dC*dT*dT*dA*dC*dT*dC*dT*dC*dT*dC*dC*dT*dC*dC*dG) [AS-II-1048-20] | 42.63% | 77.56% | 33.4% | 65.67% | – | 66.88% | 40.32% | 84.38% | 39.19%
